Seven compounds from patent US20190255048A1, “PYRIMIDINE COMPOUND OR SALT THEREOF IN APPLICATION FOR MANUFACTURING PHARMACEUTICAL PRODUCT FOR PREVENTING AND/OR TREATING FLT3-RELATED DISEASE OR DISORDER” (SHENZHEN HAIBIN PHARMACEUTICAL CO., LTD, priority 2016, published 2019) can be followed below.

Test [1] deals with mouse BaF3-FLT3-ITD-D835Y (stably expressing FLT3/ITD D835Y mutant activated kinase). Description: Effects on proliferation of cells (Cell Titer-Glo), BaF3-FLT3-ITD-D835Y. Type of test: cell-based. The note with it: incubated for 72 hours. From the text: (§1) This example tested the effects of the compounds of the present invention (the compound shown in Formula (I), hydrochloride salt, phosphate, mesylate, lactate, acetate, sulphate, and hydrobromide thereof prepared in EXAMPLES 1-8 respectively) on proliferation of tumor cells, and further evaluated the inhibitory effects of the compounds on proliferation of tumor cells and selectivity of the compounds in inhibiting proliferation of tumor cells.
(9) mouse BaF3-FLT3-ITD-D835Y (stably expressing FLT3/ITD D835Y mutant activated kinase);
(§2) The compounds at different concentration (0.000508 μM, 0.00152 μM, 0.00457 μM, 0.0137 μM, 0.0411 μM, 0.123 μM, 0.370 μM, 1.11 μM, 3.33 μM, 10 μM in DMSO) were added to the above-mentioned cells respectively, incubated for 72 hours, Cell Titer-Glo (Promega, United States of America) Chemiluminescence Kit was used to quantify ATP in living cells to detect the number of living cells, the results were shown as Table 3
On the technique in general: In ATP-based viability assays light output follows the ATP content of the culture.

In test [2] the test system is subcutaneous xenograft tumor of human MV-4-11. In words: Therapeutic effects on subcutaneous xenograft tumor of human MV-4-11 in nude mice. Type of test: in vivo, BALB/cA-nude mice. The note with it: MV-4-11 subcutaneous xenograft, 15 mg/kg intraperitoneal injection, 3 times a day for 21 days. As for the experimental part:
Preparation of test samples: all samples were prepared with 5% anhydrous ethanol, 5% Cremophor EL and 90% physiological saline.
Animals: BALB/cA-nude mice, 6-7 weeks, female ♀ purchased from Shanghai Lingchang Biotechnology Co., Ltd. Production license number was SC×K(Hu)2013-0018; animal certification number was 2013001810589.
Feeding environment: SPF Level.
Experiment steps: human acute myeloid leukemia cells MV-4-11 were inoculated subcutaneously in nude mice, after the tumor grows to 80-150 mm^3, animals were randomly divided into groups with 6 mice each group. The dosage was 15 mg/kg, the drugs were administrated by intraperitoneal injection, 3 times a day for 21 days. The volume of tumor was measured, the weight of mouse was weighed and the data were recorded.
The formula for calculating the volume of tumor (V) was: […]
Wherein a and b represented length and width respectively.
T/C (%)=(T−T0)/(C−C0)×100
Wherein T and C were the volume of tumor when the experiment was completed; T0 and C0 were the volume of tumor when the experiment was started.
The inhibited rate of tumor was calculated, the results were shown as Table 4.
On the technique in general: A xenograft is tissue or cells of one species grown in another, often human tumour cells in immunodeficient mice.

Test [3] deals with human acute myeloid leukemia cell strain MOLM-13 (expressing FLT3/ITD mutant gene and wild-type FLT3 gene). Description: Effects on proliferation of tumor cells (Cell Titer-Glo), MOLM-13. The class given is cell-based. Conditions: MOLM-13, incubated for 72 hours.
Text: as §1
(2) human acute myeloid leukemia cell strain MOLM-13 (expressing FLT3/ITD mutant gene and wild-type FLT3 gene);
as §2

Test [4] deals with human acute monocytic leukemia cell strain MV4-11 (expressing FLT3/ITD mutant gene). Description: Effects on proliferation of tumor cells (Cell Titer-Glo), MV4-11. Type of test: cell-based. The note with it: MV4-11, incubated for 72 hours.
Text: as §1
(1) human acute monocytic leukemia cell strain MV4-11 (expressing FLT3/ITD mutant gene);
as §2

Test [5] concerns mouse BaF3-FLT3-ITD-F691L (stably expressing FLT3/ITD F691L mutant activated kinase). In words: Effects on proliferation of cells (Cell Titer-Glo), BaF3-FLT3-ITD-F691L. The note with it: incubated for 72 hours. The class given is cell-based.
Text: as §1
(10) mouse BaF3-FLT3-ITD-F691L (stably expressing FLT3/ITD F691L mutant activated kinase).
as §2

Test [6] relates to mouse TEL-FLT3-BaF3 (stably expressing FLT3 kinase). In words: Effects on proliferation of cells (Cell Titer-Glo), TEL-FLT3-BaF3. Type of test: cell-based. Conditions: TEL-FLT3-BaF3, incubated for 72 hours.
Text: as §1
(8) mouse TEL-FLT3-BaF3 (stably expressing FLT3 kinase);
as §2

The subject of test [7] is human acute myeloid leukemia cell strain U937 (expressing wild-type FLT3 gene). In words: Effects on proliferation of tumor cells (Cell Titer-Glo), U937. Type of test: cell-based.
Text: as §1
(5) human acute myeloid leukemia cell strain U937 (expressing wild-type FLT3 gene);
as §2

In test [8] the test system is mouse TEL-BaF3-FLT3-D835Y (stably expressing FLT3D835Y mutant activated kinase). Description: Effects on proliferation of cells (Cell Titer-Glo), TEL-BaF3-FLT3-D835Y. Conditions: incubated for 72 hours. Type of test: cell-based.
Text: as §1
(7) mouse TEL-BaF3-FLT3-D835Y (stably expressing FLT3D835Y mutant activated kinase);
as §2

As usually defined, the IC50 is the midpoint of a concentration-inhibition curve. Low readings indicate inhibition by little substance, high ones a need for much substance. As to `CC(=O)O.Nc1sc(-c2c(F)cccc2F)nc1C(=O)Nc1cncnc1OCC1CCNCC1` [Acetate of compound of Formula (I)], the IC50 came to 0.53 µM in test [1]; 0.43 µM in test [3]; 0.41 µM in test [4]; 0.94 µM in test [5]; 0.03 µM in test [6]; 2.09 µM in test [7] (U937, incubated for 72 hours). The compound further gave an IC50 in test [8] of 0.32 µM. The “Inhibited Rate of Tumor (%)” value in test [2] turned out to be 77%.

With `Nc1sc(-c2c(F)cccc2F)nc1C(=O)Nc1cncnc1OCC1CCNCC1` [Compound of Formula (I), 5-amino-2-(2,6-difluorophenyl)-N-(4-(piperidine-4-methoxy)pyrimidine-5-) thiazole-4-formamide], the IC50 in test [1] (Mus musculus) was 0.61 µM; in test [3] (Homo sapiens), 0.52 µM; in test [4] (Homo sapiens) it was 0.51 µM; in test [5] (Mus musculus) it was 0.93 µM; in test [6] (Mus musculus), 0.12 µM; in test [7] (Homo sapiens, U-937, U937, incubated for 72 hours) it was at least 13.4 µM. The same compound displayed an IC50 in test [8] (Mus musculus) of 0.32 µM. The “Inhibited Rate of Tumor (%)” value in test [2] was found to be 66%.

For the compound `Br.Nc1sc(-c2c(F)cccc2F)nc1C(=O)Nc1cncnc1OCC1CCNCC1` [Hydrobromide of compound of Formula (I)], the IC50 in test [1] is 0.66 µM; in test [3], 0.51 µM; in test [4], 0.42 µM; in test [5], 0.76 µM; in test [6], 0.16 µM; in test [7] (U937, incubated for 72 hours), 4.66 µM. The IC50 in test [8] was determined as 0.31 µM. Further, the “Inhibited Rate of Tumor (%)” value in test [2] was determined as 66%.

Turning to `Cl.Nc1sc(-c2c(F)cccc2F)nc1C(=O)Nc1cncnc1OCC1CCNCC1` [Hydrochloride salt of compound of Formula (I)], the IC50 stood at 0.32 µM in test [1]; 0.12 µM in test [3]; 0.13 µM in test [4]; 0.45 µM in test [5]; 0.03 µM in test [6]; 6.21 µM in test [7] (U937, incubated for 72 hours). This compound returned an IC50 in test [8] of 0.21 µM. For the same compound, the “Inhibited Rate of Tumor (%)” value in test [2] was found to be 86%.

Consider `CC(O)C(=O)O.Nc1sc(-c2c(F)cccc2F)nc1C(=O)Nc1cncnc1OCC1CCNCC1` [Lactate of compound of Formula (I)], for which the IC50 in test [1] came out at 0.34 µM; in test [3] it was 0.28 µM; in test [4] it was 0.34 µM; in test [5], 0.64 µM; in test [6] it was 0.06 µM; in test [7] (U937, incubated for 72 hours), 9.05 µM. In addition, the IC50 in test [8] amounted to 0.13 µM. The “Inhibited Rate of Tumor (%)” value in test [2] came out at 71%.

In the case of `CS(=O)(=O)O.Nc1sc(-c2c(F)cccc2F)nc1C(=O)Nc1cncnc1OCC1CCNCC1` [Mesylate of compound of Formula (I)], the IC50 worked out at 0.55 µM in test [1]; 0.45 µM in test [3]; 0.43 µM in test [4]; 0.77 µM in test [5]; 0.05 µM in test [6]; 7.42 µM in test [7] (U937, incubated for 72 hours). Also, the midpoint of inhibition in test [8], the IC50, lay at 0.31 µM. Further, the “Inhibited Rate of Tumor (%)” value in test [2] was determined as 74%.

Regarding `Nc1sc(-c2c(F)cccc2F)nc1C(=O)Nc1cncnc1OCC1CCNCC1.O=S(=O)(O)O` [Sulphate of compound of Formula (I)], the IC50 in test [1] is 0.23 µM; in test [3] it was 0.23 µM; in test [4], 0.23 µM; in test [5], 0.56 µM; in test [6] it was 0.05 µM; in test [7] (U937, incubated for 72 hours), 3.56 µM. Moreover, the IC50 in test [8] stood at 0.22 µM. In addition, in test [2], the “Inhibited Rate of Tumor (%)” value turned out to be 68%.
